From patent US20020019378A1, “COMPOUNDS” (priority 1997, published 2002)
Where two headings read alike, the source gives them in different places.

What was measured:
[1] = biological target: T1, Human Glucocorticoid Receptor (Homo sapiens, UniProt P04150); assay: Functional in vitro glucocorticoid activity assay: Hela cells stably transfected with sPAP reporter gene under MMTV LTR promoter; assay type: cell-based; settings: 72 hours incubation, values given as 'less than (about)', read-out: EC50 (sPAP transcription, glucocorticoid activity)
T1 construct: endogenous in cells; host or cells: HeLa cells stably transfected with an MMTV-LTR sPAP reporter
T1 sequence (P04150 1-777): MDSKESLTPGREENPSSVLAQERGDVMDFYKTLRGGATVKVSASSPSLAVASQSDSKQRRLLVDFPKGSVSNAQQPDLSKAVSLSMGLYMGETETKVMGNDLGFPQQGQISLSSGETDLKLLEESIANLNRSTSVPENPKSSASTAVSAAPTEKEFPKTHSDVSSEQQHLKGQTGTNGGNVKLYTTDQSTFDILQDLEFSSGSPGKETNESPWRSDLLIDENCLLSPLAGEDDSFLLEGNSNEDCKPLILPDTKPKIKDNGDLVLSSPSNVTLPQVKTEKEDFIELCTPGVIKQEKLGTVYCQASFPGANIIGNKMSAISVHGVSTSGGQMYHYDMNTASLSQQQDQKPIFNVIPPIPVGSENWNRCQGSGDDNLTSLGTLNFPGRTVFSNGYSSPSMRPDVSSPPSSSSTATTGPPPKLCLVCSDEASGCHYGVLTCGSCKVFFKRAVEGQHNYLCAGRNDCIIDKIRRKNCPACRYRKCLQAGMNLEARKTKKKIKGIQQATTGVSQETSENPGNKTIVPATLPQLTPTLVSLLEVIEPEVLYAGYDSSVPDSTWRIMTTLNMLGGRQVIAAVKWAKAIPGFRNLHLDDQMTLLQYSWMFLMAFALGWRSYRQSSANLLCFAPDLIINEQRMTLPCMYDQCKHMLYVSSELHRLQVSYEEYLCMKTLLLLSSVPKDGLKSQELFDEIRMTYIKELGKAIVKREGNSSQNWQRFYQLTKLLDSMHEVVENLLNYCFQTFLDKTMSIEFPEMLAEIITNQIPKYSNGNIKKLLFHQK
Source text: The functional assay used was a modification of the method described by T. S Berger et al, of J. of Steroid Biochem. Molec. Biol. 1992, 41 (3-8), 733-738, “Interaction of Glucocorticoid analogues with the Human Glucocorticoid Receptor”. Thus, Hela cells were stably transfected with a detectable reporter gene (secreted placental alkaline phosphatase, sPAP) under the control of a glucocorticoid response promoter (the LTR of the mouse mammary tumour virus, MMTV). Various concentrations of standard (dexamethasone) or compounds of the invention were incubated with transfected Hela cells for 72 hours. At the end of the incubation, substrate ([…]) for sPAP was added and the product measured by a spectrophotometric method. Increased absorbance reflected increased sPAP transcription and concentration-response lines were constructed such that EC50-values could be estimated.

human serum paraoxonase = human serum paraoxonase (Homo sapiens, UniProt P27169); assay: Hydrolysis by human serum paraoxonase (enzymatic hydrolysis test method); assay type: in vitro ADME; settings: 5% bovine serum albumin, 20 mM CaCl2, 37° C.
Protocol: The compounds herein have relatively short half-lives in blood in vitro. A test method for determining the half-life of the compounds under defined enzymatic hydrolysis conditions in vitro is now described. The test method is believed to provide a suitable indicator as to effects in vivo. In the test method, the hydrolysis of test compounds by a lactonase enzyme is monitored using RP HPLC with UV detection.
The ‘enzymatic hydrolysis test method’ is as follows: Incubations are carried out in 1 ml volumes in an aqueous medium containing 5% bovine serum albumin in the presence of 20 mM CaCl2. The solutions are preincubated at 37° C. for 5 minutes before the addition of the test compound (5 μl of a 5 mg/ml solution in DMSO) and then lactonase enzyme (10 μl to the 1 ml incubations). Control incubations containing no enzyme are also included. The enzymatic hydrolysis is monitored by removal of aliquots and quenching the reaction by the addition of an equal volume of acetonitrile. The samples are vortex mixed, then centrifuged and the supernatants are transferred to autosampler vials for HPLC analysis.
In a suitable HPLC procedure, aliquots (20 μl) of the supernatants are injected onto a Zorbax Rx C8 column (250×4.6mm; Hichrom). The column is maintained at 40° C. and eluted at a flow rate of 1.0 mL/min with a mobile phase of acetonitrile: 50 mM ammonium formate (65:35) adjusted to pH 4.2 with formic acid. Detection is by UV absorbance at 240 nm, and chromatographic peak areas for both parent and metabolite are measured.
In a preferred aspect, the half-life of each compound may be determined by a method in which peak areas are plotted against time on a log-linear scale, and the half lives determined by extrapolation or interpolation of a straight line joining two points.
The above described ‘enzymatic hydrolysis test method’ employs lactonase enzyme. Suitable forms of lactonase enzyme include human serum paraoxonase or a recombinant form thereof, or purified lactonase, obtained from human plasma as described hereinafter. Purification of human serum paraoxonase is described by C E Furlong et al, Chem.Biol.Interactions, Vol 87, p35-48, (1993) and recombinant human serum paraoxonase is described in International Patent application No. WO 96/01322
The susceptibility to hydrolysis by human serum paraoxonase of certain of the compounds of the Examples was assessed using the test protocol of the ‘enzymatic hydrolysis test method’ described herein.

[2] = tested on: lactonase enzyme purified from human plasma; assay type: biochemical; settings: for Restoration of lactonase activity in the presence of EDTA and EGTA: salt added at 100 mM
Protocol: The enzyme activity purified according to A. above was tested with classical inhibitors in order to establish to which enzyme family it belongs. Also, it was investigated whether a divalent cation was required as a co-factor, as disclosed in W. N. Fishbein et al, Journal of Biological Chemistry 1966, 241(21), 4835-4841.

[3] = Stability in human plasma test method; assay type: in vitro ADME; settings: 37° C.
Protocol: The stability of various of the compounds of the Examples in human plasma was tested using the following ‘stability in human plasma’ test method: 500 μl aliquots of human plasma in screw capped polypropylene tubes were preincubated at 37° C. in a waterbath for 5 minutes. The plasma samples were then spiked with 5 μl of test compound (nominally 5 mg/ml in DMSO). Aliquots (100 μl ) were removed immediately and after 5 minutes and mixed with an equal volume of acetonitrile. The samples were centrifuged and the supernatants were transferred to autosampler vials for HPLC and half-life analysis.
In the HPLC procedure, aliquots (20 μl) of all the supernatants were injected onto a Zorbax Rx C8 column (250×4.6mm; Hichrom). The column was maintained at 40° C. and eluted at a flow rate of 1.0 mL/min with a mobile phase of acetonitrile: 50 mM ammonium formate (65:35) adjusted to pH 4.2 with formic acid. Detection was by UV absorbance at 240 nm, and chromatographic peak areas for both parent and metabolite were measured
To determine the half-life, for each compound peak areas were plotted against time on a log-linear scale, and the half lives determined by extrapolation or interpolation of a straight line joining two points.

[4] = Stability in human lung S9; assay type: in vitro ADME; settings: human lung S9 diluted 1:1 with phosphate buffer pH 7.4, NADPH, 37° C.
Protocol: The stability of the compound of Examples 4 and 6 in a model human lung environment was assessed using the following test protocol: Incubations were carried out, at 37° C., in 500 μL volumes of human lung S9 diluted 1:1 with 10 mM phosphate buffer pH 7.4 to which was added 50 μl of 30 mg/ml (Aq) NADPH. The reactions were started by the addition of 5 μl of test compound (nominally 5 mg/ml solution in DMSO). Aliquots (100 μl) were removed immediately and after 1 hour and mixed with an equal volume of acetonitrile to stop the reaction. Samples were centrifuged and the supernatants were transferred to autosampler vials for HPLC analysis and half-life analysis using methods identical to those described in the ‘stability in human plasma’ test protocol described above. Control incubations containing no lung S9 were also included.

Sequence of human serum paraoxonase (P27169 whole entry): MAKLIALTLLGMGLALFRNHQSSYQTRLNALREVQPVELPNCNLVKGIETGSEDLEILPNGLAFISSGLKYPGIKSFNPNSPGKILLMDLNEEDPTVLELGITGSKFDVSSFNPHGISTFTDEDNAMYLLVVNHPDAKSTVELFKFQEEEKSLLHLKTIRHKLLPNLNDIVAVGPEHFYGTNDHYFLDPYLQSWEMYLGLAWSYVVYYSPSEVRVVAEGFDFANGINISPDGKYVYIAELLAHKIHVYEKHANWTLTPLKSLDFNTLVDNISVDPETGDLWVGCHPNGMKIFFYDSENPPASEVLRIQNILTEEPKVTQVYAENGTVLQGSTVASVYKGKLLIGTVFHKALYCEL

## CCC(=O)O[C@]1(C(=O)SCC2CCOC2=O)[C@H](C)C[C@H]2[C@@H]3C[C@H](F)C4=CC(=O)C=C[C@]4(C)[C@@]3(F)[C@@H](O)C[C@@]21C (single isomer, unassigned) [Example 2, 6α,9α-Difluoro-11β-hydroxy-16α-methyl-3-oxo-17α-propionyloxy-androsta-1,4-diene-17β-carbothioic acid S-(2-oxo-tetrahydro-furan-3-ylmethyl) ester]
[1]
  EC50: < 250 nM

## CCC(=O)OC1(C(=O)SC2COC(=O)O2)C(C)CC2C3CC(F)C4=CC(=O)C=CC4(C)C3(F)C(O)CC21C (single isomer, unassigned) [Example 7 isomer A, 6α,9α-Difluoro-11β-hydroxy-16α-methyl-3-oxo-17α-propionyloxy-androsta-1,4-diene-17β-carbothioic acid S-(2-oxo-1,3-dioxolan-4-yl) ester]
[1]
  EC50: < 500 nM
Human serum paraoxonase
  Hydrolysis by human serum paraoxonase: hydrolysed

## CCC(=O)OC1(C(=O)OC2COC(=O)O2)C(C)CC2C3CC(F)C4=CC(=O)C=CC4(C)C3(F)C(O)CC21C (single isomer, unassigned; isomer a) [Example 9 isomer A, 6α,9α-Difluoro-11β-hydroxy-16α-methyl-3-oxo-17α-propionyloxy-androsta-1,4-diene-17β-carboxylic acid O-(2-oxo-1,3-dioxolan-4-yl) ester]
Human serum paraoxonase
  Hydrolysis by human serum paraoxonase: hydrolysed

## [Ca+2].[Cl-].[Cl-] [CaCl2]
[2]
  Restoration of lactonase activity in the presence of EDTA and EGTA: fully restored

## O=C(O)CN(CCN(CC(=O)O)CC(=O)O)CC(=O)O [EDTA]
[2]
  Inhibition of lactonase activity: totally inhibited

## O=C(O)CN(CCOCCOCCN(CC(=O)O)CC(=O)O)CC(=O)O [EGTA]
[2]; inhibitor at 1 mM
  Inhibition of lactonase activity: totally inhibited

## C[C@@H]1C[C@H]2[C@@H]3C[C@H](F)C4=CC(=O)C=C[C@]4(C)[C@@]3(F)[C@@H](O)C[C@]2(C)[C@]12OC(=O)SC2=O [Example 1, 6α,9α-Difluoro-11β-hydroxy-16α-methyl-17-spiro[androsta-1,4-diene-17,5′-[1,3]oxathiolane]-2′,3,4′-trione]
[1]
  EC50: < 250 nM

## CSC(=O)[C@@]1(OC(=O)CSC2COC(=O)C2)[C@H](C)C[C@H]2[C@@H]3C[C@H](F)C4=CC(=O)C=C[C@]4(C)[C@@]3(F)[C@@H](O)C[C@@]21C (stereo partly drawn) [Example 3, 6α,9α-Difluoro-11β-hydroxy-16α-methyl-3-oxo-17α-(2-oxo-tetrahydro-furan-4-ylsulfanyl-acetoxy)-androsta-1,4-diene-17β-carbothioic acid methyl ester]
[1]
  EC50: < 250 nM
[3]
  half-life at 49.5 µg/mL: < 10 min
Human serum paraoxonase
  Hydrolysis by human serum paraoxonase: hydrolysed

## C[C@]12C=CC(=O)C=C1CC[C@H]1[C@@H]3C[C@H]4CC(=O)O[C@@]4(C(=O)CO)[C@@]3(C)C[C@H](O)[C@@]12F [Example 5, 9α-Fluoro-11β,17α,21-trihydroxy-3,20-dioxo-pregna-1,4-diene-16α-acetic acid γ-lactone]
[1]
  EC50: < 250 nM

## Nc1c(Cl)cc(C(O)CNCCCSC2CCOC2=O)cc1Cl.O=C(O)C(F)(F)F (stereo not shown) [Example 6, 3-[3-[2-(4-Amino-3,5-dichlorophenyl)-2-hydroxyethylamino]propylsulfanyl]-dihydro-furan-2-one trifluoroacetate]
[3]
  half-life at 49.5 µg/mL: < 10 min
[4]
  half-life at 45 µg/mL: > 60 min

## CCC(=O)O[C@]1(C(=O)SCc2oc(=O)oc2C)[C@H](C)C[C@H]2[C@@H]3C[C@H](F)C4=CC(=O)C=C[C@]4(C)[C@@]3(F)[C@@H](O)C[C@@]21C [Example 10, 6α,9α-Difluoro-11β-hydroxy-16α-methyl-3-oxo-17α-propionyloxy-androsta-1,4-diene-17β-carbothioic acid S-(5-methyl-2-oxo-1,3-dioxol-4-ylmethyl) ester]
[1]
  EC50: < 500 nM
[3]
  half-life at 49.5 µg/mL: < 10 min

## CCC(=O)OC1(C(=O)OCc2oc(=O)oc2C)C(C)CC2C3CC(F)C4=CC(=O)C=CC4(C)C3(F)C(O)CC21C (stereo not drawn) [Example 12, 6α,9α-Difluoro-11β-hydroxy-16α-methyl-3-oxo-17α-propionyloxy-androsta-1,4-diene-17β-carboxylic acid O-(5-methyl-2-oxo-1,3-dioxol-4-ylmethyl) ester]
Human serum paraoxonase
  Hydrolysis by human serum paraoxonase: hydrolysed

## [Cl-].[Cl-].[Mg+2] [MgCl2]
[2]
  Restoration of lactonase activity in the presence of EDTA and EGTA: not restored

## CNC(=O)Oc1ccc2c(c1)[C@]1(C)CCN(C)[C@@H]1N2C [eserine]
[2]; inhibitor at 50 mM
  Inhibition of lactonase activity: not inhibited

## O=C(O)c1cc[c]([Hg][Cl])cc1 [p-chloromercuribenzoate (PCMB), p-chloromercuribenzoate]
[2]; inhibitor at 1 mM
  Inhibition of lactonase activity: slightly inhibited

## O=S(=O)(F)Cc1ccccc1 [phenylmethylsulphonyl fluoride (PMSF), phenylmethylsulphonyl fluoride]
[2]; inhibitor at 10 mM
  Inhibition of lactonase activity: not inhibited

## O=S(=O)([O-])[O-].[Zn+2] [zinc sulphate]
[2]; inhibitor at 1 mM
  Inhibition of lactonase activity: totally inhibited
